Measured values as given in patent publication US20250230193A1, “CYCLIC COMPOUND HAVING SELECTIVE KRAS INHIBITORY EFFECT ON HRAS AND NRAS” (CHUGAI SEIYAKU KABUSHIKI KAISHA, priority 2022, published 2025).

Columns and labels:
[1] = target: GDP-bound HRAS wild-type protein (Homo sapiens, UniProt P01112); experiment: Binding to HRAS by surface plasmon resonance (SPR), Single Cycle Kinetics; conditions: SPR; for HRAS/KRAS (ratio of KD value for HRAS to KD value for KRAS) / HRAS/KRAS (ratio of KD value with respect to HRAS to KD value with respect to KRAS): GDP-bound HRAS wild-type vs GDP-bound KRAS wild-type
GDP-bound HRAS wild-type protein, sequence (P01112 whole entry): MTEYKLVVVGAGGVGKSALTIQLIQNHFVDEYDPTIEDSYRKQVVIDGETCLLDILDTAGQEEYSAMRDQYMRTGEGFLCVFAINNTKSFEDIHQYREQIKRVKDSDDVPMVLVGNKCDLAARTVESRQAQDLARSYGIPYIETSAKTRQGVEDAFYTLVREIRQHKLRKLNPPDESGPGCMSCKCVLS

[2] = target: GDP-bound NRAS wild-type protein (Homo sapiens, UniProt P01111); experiment: Binding to NRAS by surface plasmon resonance (SPR), Single Cycle Kinetics; conditions: SPR; for NRAS/KRAS (ratio of KD value for NRAS to KD value for KRAS) / NRAS/KRAS (ratio of KD value with respect to NRAS to KD value with respect to KRAS): GDP-bound NRAS wild-type vs GDP-bound KRAS wild-type
GDP-bound NRAS wild-type protein, sequence (P01111 whole entry): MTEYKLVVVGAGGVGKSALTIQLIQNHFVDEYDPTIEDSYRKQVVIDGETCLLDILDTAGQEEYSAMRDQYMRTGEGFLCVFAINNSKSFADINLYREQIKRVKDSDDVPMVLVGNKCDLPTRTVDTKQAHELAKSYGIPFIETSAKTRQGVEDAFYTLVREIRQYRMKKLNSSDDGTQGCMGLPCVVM

Structure (SMILES): CC[C@H](C)[C@@H]1NC(=O)[C@H](CC2CC2)N(C)C(=O)C[C@@H](C(=O)N(C)C)N(C)C(=O)[C@H](C2CCCC2)N(C)C(=O)C2(CCC2)NC(=O)[C@@H]2[C@@H](OCC(F)F)CCN2C(=O)[C@H](CCc2cc(F)c(C(F)(F)F)c(F)c2)NC(=O)CN(C)C(=O)[C@H](Cc2ccc(C(F)(F)F)cc2)N2CC/C=C\C[C@@H](C2=O)N(C)C(=O)CN(C)C1=O [PP1533]
- HRAS/KRAS (ratio of KD value for GDP-bound HRAS wild-type protein to KD value for KRAS) ([1]; KD ratio class): A (a compound having 10 or more and less than 20 is denoted as A)
- NRAS/KRAS (ratio of KD value for GDP-bound NRAS wild-type protein to KD value for KRAS) ([2]; KD ratio class): AA (a compound having 20 or more is denoted as AA)

Structure (SMILES): CC[C@H](C)[C@@H]1NC(=O)[C@H](CC(C)C)N(C)C(=O)C[C@@H](C(=O)N2CCOCC2)N(C)C(=O)[C@H](C2CCCC2)N(C)C(=O)C2(CCCC2)NC(=O)[C@@H]2CCCN2C(=O)[C@H](CCc2ccc(C(F)(F)F)c(Cl)c2)NC(=O)CN(C)C(=O)[C@H](Cc2ccc(OC(F)(F)F)cc2)N2CC=CC[C@@H](C2=O)N(C)C(=O)CN(C)C1=O [PP0537]
- HRAS/KRAS (ratio of KD value with respect to GDP-bound HRAS wild-type protein to KD value with respect to KRAS) [1]: C (A compound having a KD ratio of 0.1 or more and less than 3 is denoted as C)
- NRAS/KRAS (ratio of KD value with respect to GDP-bound NRAS wild-type protein to KD value with respect to KRAS) [2]: C (A compound having a KD ratio of 0.1 or more and less than 3 is denoted as C)

Structure (SMILES): CC[C@H](C)[C@@H]1NC(=O)[C@H](CC(C)C)N(C)C(=O)C[C@@H](C(=O)N(C)C)N(C)C(=O)[C@H](C2CCCC2)N(C)C(=O)C2(CCC2)NC(=O)[C@@H]2C[C@@H](C)CN2C(=O)[C@H](CCc2ccc(C(F)(F)F)c(Cl)c2)NC(=O)CN(C)C(=O)[C@H](Cc2ccc(C)cc2)N2CC/C=C\C[C@@H](C2=O)N(C)C(=O)CN(C)C1=O [PP1854]
- HRAS/KRAS (ratio of KD value for HRAS to KD value for KRAS) ([1]; KD ratio): A (a compound having 10 or more and less than 20 is denoted as A)
- NRAS/KRAS (ratio of KD value for NRAS to KD value for KRAS) ([2]; KD ratio): A (a compound having 10 or more and less than 20 is denoted as A)

Structure (SMILES): CCO[C@@H]1C[C@H]2C(=O)NC3(CCC3)C(=O)N(C)[C@@H](C3CCCC3)C(=O)N(C)[C@H](C(=O)N(C)C)CC(=O)N(C)[C@@H](CC)C(=O)N[C@@H]([C@@H](C)CC)C(=O)N(C)CC(=O)N(C)[C@H]3CCCCCN(C3=O)[C@@H](Cc3ccc(F)c(OC)c3)C(=O)N(C)CC(=O)N[C@@H](CCc3cc(F)c(C(F)(F)F)c(F)c3)C(=O)N2C1 [PP0915]
- HRAS/KRAS (ratio of KD value with respect to HRAS to KD value with respect to KRAS) ([1]; KD ratio): B (a compound having 3 or more and less than 10 is denoted as B)
- NRAS/KRAS (ratio of KD value with respect to NRAS to KD value with respect to KRAS) ([2]; KD ratio): B (a compound having 3 or more and less than 10 is denoted as B)

Structure (SMILES): CC[C@H](C)[C@@H]1NC(=O)[C@H](Cc2cccc(Cl)c2)N(C)C(=O)C[C@@H](C(=O)N2CCOCC2)N(C)C(=O)[C@H](C2CCCC2)N(C)C(=O)C2(CCCC2)NC(=O)[C@@H]2CCCN2C(=O)[C@H](CCc2ccc(C(F)(F)F)c(Cl)c2)NC(=O)CN(C)C(=O)[C@H](Cc2ccc(F)cc2)N2CCCCC[C@@H](C2=O)N(C)C(=O)CN(C)C1=O [PP0963]
- HRAS/KRAS (ratio of KD value with respect to HRAS to KD value with respect to KRAS) ([1]; KD ratio): B (a compound having 3 or more and less than 10 is denoted as B)
- NRAS/KRAS (ratio of KD value with respect to NRAS to KD value with respect to KRAS) ([2]; KD ratio): B (a compound having 3 or more and less than 10 is denoted as B)

Structure (SMILES): CCCN(C)C(=O)[C@@H]1CC(=O)N(C)[C@@H](CC(C)C)C(=O)N[C@@H](C2CCOCC2)C(=O)N(C)CC(=O)N(C)[C@H]2C/C=C\CCN(C2=O)[C@@H](Cc2ccc(C(F)(F)F)cc2)C(=O)N(C)CC(=O)N[C@@H](CCc2cc(F)c(C(F)(F)F)c(F)c2)C(=O)N2C[C@H](OCC)C[C@H]2C(=O)NC2(CC(C)(C)C2)C(=O)N(C)[C@@H](C2CCCC2)C(=O)N1C [PP1923]
- HRAS/KRAS (ratio of KD value for HRAS to KD value for KRAS) ([1]; KD ratio): A (a compound having 10 or more and less than 20 is denoted as A)
- NRAS/KRAS (ratio of KD value for NRAS to KD value for KRAS) ([2]; KD ratio): A (a compound having 10 or more and less than 20 is denoted as A)

Structure (SMILES): CC[C@H](C)[C@@H]1NC(=O)[C@@H](CC(C)C)N(C)C(=O)C[C@@H](C(=O)N2CCOCC2)N(C)C(=O)[C@H](C2CCCC2)N(C)C(=O)C2(CCCC2)NC(=O)[C@@H]2CCCN2C(=O)[C@H](CCc2cc(F)c(C(F)(F)F)c(F)c2)NC(=O)CN(C)C(=O)[C@H](Cc2ccc(C(F)(F)F)cc2)N2CCCC[C@@H](C2=O)N(C)C(=O)CN(C)C1=O [PP0591]
- HRAS/KRAS (ratio of KD value with respect to GDP-bound HRAS wild-type protein to KD value with respect to KRAS) [1]: B (a compound having 3 or more and less than 10 is denoted as B)
- NRAS/KRAS (ratio of KD value with respect to GDP-bound NRAS wild-type protein to KD value with respect to KRAS) [2]: B (a compound having 3 or more and less than 10 is denoted as B)

Structure (SMILES): CC[C@H](C)[C@@H]1NC(=O)[C@H](COC)N(C)C(=O)C[C@@H](C(=O)N(C)C)N(C)C(=O)[C@H](C2CCCC2)N(C)C(=O)C2(CC(C)(C)C2)NC(=O)[C@@H]2C[C@H](C)CN2C(=O)[C@H](CCc2ccc(C(F)(F)F)c(OC)c2)NC(=O)CN(C)C(=O)[C@H](Cc2ccc(C)cc2)N2CC/C=C\C[C@@H](C2=O)N(C)C(=O)CN(C)C1=O [PP2385]
- HRAS/KRAS (ratio of KD value with respect to HRAS to KD value with respect to KRAS) [1]: B (a compound having 3 or more and less than 10 is denoted as B)
- NRAS/KRAS (ratio of KD value with respect to NRAS to KD value with respect to KRAS) [2]: A (a compound having 10 or more and less than 20 is denoted as A)
